According to patent US20140113958A1, “HCV Combination Therapy” (priority 2011, published 2014):
Several values for one entry are separate records, joined by “and”; a condition that tells them apart may be missing. Identical values can stand only once. Entries after “also recorded” stand apart in the source; their conditions may differ. Like-named read-outs stand apart in the source and are kept apart here.

How the values were obtained:
[1] = tested on: HCV genotype Ib replicon (I389luc-ubi-neo/NS3-3′/ET) in Huh-luc/neo-ET cells; format: cell-based
Procedure: (§1) The anti-viral efficacy and cellular toxicity of non-transfected antimiR oligonucleotide in combination with approved and experimental anti-HCV therapeutics (e.g. NM283, 2′-C-methylcytidine, and/or VX-222) (or other NS5B polymerase inhibitors) was determined in the reporter cell line Huh-luc/neo-ET. This cell line harbors the persistently replicating I389luc-ubi-neo/NS3-3′/ET replicon containing the firefly luciferase gene-ubiquitin-neomycin phosphotransferase fusion protein and EMCV IRES driven NS3-5B HCV coding sequences containing the ET tissue culture adaptive mutations (E1202G, T1208I, and K1846T). Eight dilutions of non-transfected antimiR oligonucleotide (bracketing the calculated EC50) were evaluated in triplicate on duplicate sets of three plates with five dilutions of each of the control compounds (bracketing the calculated EC50). One set of plates was used for the determination of cellular toxicity and the other set of plates was used for the determination of anti-viral efficacy. The efficacy and toxicity results was quantified with firefly luciferase activity and XTT dye reduction, respectively, and the results of the assay is imported into the Prichard and Shipman MacSynergy II software program. The MacSynery II analysis includes calculation of the dose response of the two (or more) compounds when used alone followed by calculation of the expected additive level of antiviral inhibition or toxicity when the compounds are used together based on the individual dose response curves. The expected level of activity at each of the concentration data points was compared to the experimentally determined antiviral activity in the assay. The expected activity was subtracted from the realized activity, yielding a negative, zero or positive value. These values are plotted as a three dimensional representation of the data and the result is reported as a two-factor value, expressing the combined average above the expected level of activity (synergy volume) and the combined average below the expected level of activity (antagonism volume). Combination analysis was performed two or more times for each pair of test compound and control substance.
(§2) The reporter cell line Huh-luc/neo-ET was obtained from Dr. Ralf Bartenschlager (Department of Molecular Virology, Hygiene Institute, University of Heidelberg, Germany) by ImQuest BioSciences. This cell line harbors the persistently replicating 1389luc-ubi-neo/NS3-3′IET replicon containing the firefly luciferase gene-ubiquitinneomycin phosphotransferase fusion protein and EMCV IRES driven NS3-5B HCV coding sequences containing the ET tissue culture adaptive mutations (E 1202G, T12081, and KI846T). A stock culture of the Huh-luc/neo-ET was expanded by culture in DMEM supplemented with 10% FBS, 2 mM glutamine, penicillin (100 IU/mL)/streptomycin (100 f·Ig/mL) and IX nonessential amino acids plus I mg/ml G418. Prior to plating, the cells were split 1:4 and cultured for two passages in the same medium plus 250 f·Ig/mL G418. The cells were treated with trypsin and enumerated by staining with trypan blue and seeded into 96-well tissue culture plates at a cell culture density 5.0×10^3 cells per well in a volume of 85 f·IL per well and incubated at […] in an environment of 5% CO2 for 24 hours. Six plates were established for the determination of combination efficacy (EC50) and cytotoxicity (TC50) for each of the compound combinations (three plates each for efficacy and toxicity). Following the 24 hour incubation, eight 2-fold serial dilutions of SPC3649 in cell culture medium without G418 were prepared (final in well high test concentration of 1.20 μM to 2.40 μM) and added to the cells and five 2-fold or 5-fold serial dilutions of control compounds in cell culture medium without G418 were prepared and added to the cells.

[2] = tested on: Huh-luc/neo-ET cells; assay: Cellular toxicity by XTT dye reduction in Huh-luc/neo-ET cells
Procedure: as §1
as §2, with “Following the 24 hour incubation, eight 2-fold serial dilutions of SPC3649 in cell culture medium without G418 were prepared (final in well high test concentration of 1.20 μM to 2.40 μM) and added to the cells and five 2-fold or 5-fold serial dilutions of control compounds in cell culture medium without G418 were prepared and added to the cells.” left out

[3] = tested on: Huh-luc/neo-ET HCV genotype Ib replicon cells; format: cell-based; settings: selection with G418, 28 days
Procedure: Cell culture and Assay setup: The reporter cell line Huh-luc/neo-ET was obtained and prepare as described previously. Cells were plated into 10 cm tissue culture dishes at a density of 3×10^5 cells per plate in culture medium containing 250 μg/ml G418 and incubated for 24 hours at 37° C. in an environment of 5% C02. Following the 24 hour incubation, dilutions of SPC3649, SPC4729, or telaprevir were prepared in cell culture medium (as above) with 750 μg/ml G418. Each of the dilutions was added to duplicate plates and the plates were incubated at 37° C. in an environment of 5% CO^2. Two additional plates received cell culture medium with 750 μg/ml G418 as a no-treatment control. […] The final concentration of SPC4729 was 10.0 μM. […] Following 28 days of passage, one set of dishes was stained with crystal violet and the other set of plates was utilized for expansion and establishment of resistant cell culture stocks.
Huh-luc/neo-ET HCY genotype Ib replicon cells were cultured under selective pressure in the presence of 750 μg/mL G4 I8 with and without four independent fixed concentrations of SPC3649 anti-miR oligonucleotide, or telaprevir, or one concentration of scrambled oligonucleotide SPC4729 for 28 days in tissue culture plates. Duplicate tissue culture dishes were established and maintained for each culture condition. Medium was replaced bi-weekly during the 28 days of culture and the cells were split at the time of medium replenishment to maintain a confluent cell culture monolayer. Following four weeks in culture, cells were either fixed with methanol and stained with crystal violet or expanded for subsequent phenotypic and genotypic characterization.

[4] = tested on: HCV genotype 1b replicon NS3 A156T; format: cell-based; settings: EC50 mutant / EC50 wild-type; mean of two experiments (individual values)
Procedure: (§3) The in vitro antiviral of miravirsen was evaluated against wild-type HCV genotype 1b replicon and HCV genotype 1b replicons constructed to contain key amino acid substitutions in NS3 protease (A156T, R155K), NS5B polymerase (S282T, M423I) and NS5A protein (Y93H) in transient transfection assays utilizing Huh 7 cells. […] Huh 7 cells were transfected with either the wild-type or the mutant RNA constructs by electroporation. Luciferase activity was measured 72 hours after compound treatment and EC50 values determined from dose-response curves. Fold resistance was expressed as the ratio of the EC50 for mutant HCV replicon to the EC50 for wild-type HCV replicon.
(§4) The in vitro antiviral of miravirsen was evaluated against wild-type HCV genotype 1b replicon and HCV replicons constructed to contain key amino acid substitutions in NS3 protease (A156T, R155K), NS5B polymerase (S282T, M423I) and NS5A protein (Y93H) in transient transfection assays. […] Huh 7 cells were transfected with either the wild type or the mutant RNA constructs by electroporation. Luciferase activity was measured 72 hours after compound treatment and EC50 values determined from dose-response curves. Fold resistance was expressed as the ratio of the EC50 for mutant HCV replicon to the EC50 for wild-type HCV replicon. Results are expressed as the mean of two individual experiments. In an initial set of experiments, the standard protocol was modified by adding compounds 24 hours after electroporation. […] In a third experiment cells were pretreated with miravirsen for 24 hours before electroporation with wild-type RNA constructs to determine if preincubation could result in increased miravirsen antiviral activity.

[5] = tested on: HCV genotype 1b replicon NS5B M423I; format: cell-based; settings: EC50 mutant / EC50 wild-type; mean of two experiments (individual values)
Procedure: as §3, §4

[6] = tested on: HCV genotype 1b replicon NS3 R155K; format: cell-based; settings: EC50 mutant / EC50 wild-type; mean of two experiments (individual values)
Procedure: as §3, §4

[7] = tested on: HCV genotype 1b replicon NS5A Y93H; format: cell-based; settings: EC50 mutant / EC50 wild-type; mean of two experiments (individual values)
Procedure: as §3, §4

[8] = tested on: HCV genotype 1b replicon NS5B S282T; format: cell-based; settings: EC50 mutant / EC50 wild-type, mean of two experiments (individual values)
Procedure: as §3, §4

[9] = in combination with ribavirin, 95% confidence level
[10] = second drug in combination with miravirsen (SPC3649), 95% confidence interval, median (≧3 experiments) or individual values
[11] = second drug in combination with miravirsen (SPC3649), overall
[12] = second drug in combination with miravirsen (SPC3649), 95% confidence interval, median or individual values

For “5′-Ts.^ocsAs.^otsas.^mCs.^oTs.^oastsAs.^otsGs.^oas.^mCs.^oA.^o-3′ [SPC4729]”, the “Efficacy, Synergy vol” value [1] was 0.00/−177.6 μM^2%, the overall antiviral interaction ([1]; in combination with ribavirin) was “antagonistic” and the “Efficacy, Antag Vol” value ([1]; in combination with ribavirin, 95% confidence level, individual values) was 0.00/−177.6 μM^2%. For the same compound, the “impact of combination on in vitro cytotoxicity” value ([2]; in combination with ribavirin) was “slight higher cytotoxicity”, the “Cytotoxicity, Antag Vol” value [2, 9] was −44.3 μM^2% and the “Cytotoxicity, Synergy vol” value [2, 9] was 0.00 μM^2%. The “rate of cell expansion” value [3] was “did not decrease the rate of cell expansion”.

For C[C@@]1(O)[C@H](O)[C@@H](CO)O[C@H]1n1ccc(N)nc1=O [2′-C-Methylcytidine, 2′-C-methylcytidine], the “interaction in individual assay replicates” value ([1]; in combination with SPC 3649, part of the replicates, listed as 2-methyl cytidine) was “positive interactions; also recorded: slightly antagonistic interaction”, the “Efficacy, Antagonism vol” value [1, 10] was −27.6 μM^2% and the “Efficacy, Synergy vol” value [1, 10] was 0 μM^2%. The “Efficacy, Synergy vol” value ([1]; second drug in combination with miravirsen (SPC3649), 95% confidence interval, median (≧3 experiments) or individual values, listed as 2-methyl cytidine) was 0.0 μM^2%, the Interaction [1, 11] was “Positive” and the Interaction ([1]; second drug in combination with miravirsen (SPC3649), overall, listed as 2-methyl cytidine) was “positive interaction”. For the same compound, the “Cytotoxicity, Antagonism vol” value [2, 12] was −0.67 μM^2%, the “Cytotoxicity, Synergy vol” value [2, 12] was 0 μM^2% and the “fold change in susceptibility, NS3 A156T” value [4] was 0.9 (1.0, 0.8) fold. For the same compound, the “fold change in susceptibility, NS5B M423I” value [5] was 1.0 (0.9, 1.1) fold, the “fold change in susceptibility, NS3 R155K” value [6] was 0.8 (1.0, 0.6) fold and the “fold change in susceptibility, NS5A Y93H” value [7] was 1.0 (1.2, 0.8) fold. The “fold change in susceptibility, NS5B S282T” value ([8]; listed as 2′Me-C) was 42.8 fold and 45.8 fold and the “fold change in susceptibility, NS5B S282T” value ([8]; listed as 2′Me—C) was 45.8 (49.3, 42.3) fold.

In the case of COC(=O)N[C@H](C(=O)N1CCC[C@H]1c1nc(-c2ccc(-c3ccc(-c4c[nH]c([C@@H]5CCCN5C(=O)[C@@H](NC(=O)OC)C(C)C)n4)cc3)cc2)c[nH]1)C(C)C [BMS 790052, Dimethyl (2S,2′S)-1,1′-((2S,2′S)-2,2′-(4,4′-(biphenyl-4,4′-diyl)bis(1H-imidazole-4,2-diyl))bis(pyrrolidine-2,1-diyl))bis(3-methyl-1-oxobutane-2,1-diyl)dicarbamate], the “Efficacy, Antagonism vol” value [1, 10] is reported as −25.5 μM^2% and −0.1 μM^2% and 0/−24.5; μM^2% and 18.46/−0.06 μM^2%, the Interaction [1, 11] is reported as “Positive” and the “Cytotoxicity, Antagonism vol” value [2, 12] is reported as −21.9 μM^2%. The “Cytotoxicity, Synergy vol” value [2, 12] was 0 μM^2% and the “fold change in susceptibility, NS5A Y93H” value [7] was 29.9 fold and 29.9 (32.7, 27.0) fold.

In the case of NC(=O)c1ncn([C@@H]2O[C@H](CO)[C@@H](O)[C@H]2O)n1 [Ribavirin, 1-[(2R,3R,4S,5R)-3,4-dihydroxy-5-(hydroxymethyl)oxolan-2-yl]-1H-1,2,4-triazole-3-carboxamide], the Interaction [1] is reported as “Positive”, the antagonism volume [1] is reported as −292.6 μM^2% and the “interaction in individual assay replicates” value [1] is reported as “additive interaction; also recorded: highly antagonistic interaction”.

For CC(C)(C)C#Cc1cc(N(C(=O)[C@H]2CC[C@H](C)CC2)[C@H]2CC[C@H](O)CC2)c(C(=O)O)s1 [VX-222], the “Efficacy, Antagonism vol” value [1, 10] was −34.4 μM^2% and −4.27 μM^2% and 4.81/−34.44; μM^2% and 0.82/−4.27 μM^2%, the Interaction [1, 11] was “Positive” and the “Cytotoxicity, Antagonism vol” value [2, 12] was −28.6 μM^2% and 0 μM^2%. For the same compound, the “Cytotoxicity, Synergy vol” value [2, 12] was 0 μM^2% and the “fold change in susceptibility, NS5B M423I” value [5] was 4.4 fold and 4.4 (3.6, 5.2) fold.
